“And” between values parts separate entries of the source, which are not always exact repeats. Equal values may be shown once.
Key:
Balb/c intestinal cells = experiment: Cell proliferation by BrdU labeling, flow cytometry; format: in vivo, mouse
Description: S phase cells were labeled in vivo by administering BrdU (i.p., 100 mg/kg) to each mouse 2 h before euthanasia. Mice were euthanized 3 days after irradiation and small intestine was rapidly dissected, chopped into homogeneous solution by straining with 70μ strainer and fixed in 70% ethanol. Cells stained with 0.5 mL of RNase (2 mg/mL) and 0.5 mL of propidium iodide (0.1% in 0.6% Triton X-100 in PBS) for 30 min in dark. Samples were then analysed on a FACS Calibur flow-cytometer (Becton Dickinson).

[1] = test system: Akt/NFκB pathway in melanoma tissue of mice; experiment: Immunoblot analysis in tumor tissue; format: in vivo, mouse
Description: (§1) EAT and B16F10 melanoma cell line were harvested and 10×10^6 and 0.8×10^6 cells respectively were injected subcutaneously in the Balb/c mice (n=24) on the right thigh. When tumors reached 0.5 cm^3 in volume, animals were randomized and divided into 4 different groups. The first test group was treated with 50 mg/kg, i.v. DMA, second test group subjected to 8 Gy TBI. Third group received 50 mg/kg, i.v. DMA and 8 Gy TBI both. The control group was similarly administered normal saline (0.1 ml, i.v.). On every alternate days, tumor-bearing thigh of each animal was shaved, and the longest (1) and shortest diameter (b) of the tumors along with height (h) were measured with the help of a vernier calliper. Tumor weight of each animal was calculated using the formula l*b*h/2.
HEK293, MRC5 and A549 cells were treated as indicated earlier. The cell pellet was resuspended in RIPA buffer and allowed to swell on ice for 30 min. Balb/c intestine tissue and tumor tissues were homogenized in RIPA buffer. Protein concentration was determined using Bradford's Assay (Bangalore Genei). […] Signals were detected using enhanced chemiluminescence (ECL system, Pierce) on X-ray film.

HEK293 cells [2] = experiment: Annexin-V staining, control siRNA and Akt siRNA transfected cells; format: cell-based, human; settings: for Apoptotic events: Akt knocked down HEK293, DMA+Radiation; for Total early and late apoptotic cells: control siRNA HEK293, DMA+Radiation
Description: HEK 293 cells were transfected with Akt siRNA and control-siRNA (Santa Cruz Biotechnology Inc.) according to the manufacturer's instructions. Semi-quantitative RT-PCR was performed with primers specific for Akt and ACTB in control siRNA and Akt siRNA treated HEK cells for analysing knockdown of Akt […] gene expression.
HEK293 cells (2×10^5 cells/plate) were transfected with control siRNA and siRNA-Akt, and DMA, Radiation and DMA+Radiation treatments were given as described earlier and samples were collected at 3, 6, 12, 18 and 24 h (data not shown for 12 and 18 h). Samples were prepared according to the manufacturer's instructions (BD Pharmingen™ Annexin V: FITC Apoptosis Detection Kit I, Catalog Number 556547, USA) and the samples were subjected to flow cytometry analysis (Becton Dickinson).

U87 cells = experiment: Clonogenic survival, DMF; format: cell-based, human; settings: U87, 50 μM DMA 2 h before radiation
Description: (§2) Exponentially growing U87, HEK293, MRC5 and A549 cells were treated with 50 μM DMA for 2 h and irradiated with 0, 1, 2, 5, 8 and 10 Gy of radiation dose as indicated at RT and trypsinized immediately at 37° C. Cells were seeded into 60 mm dishes in triplicate at various cell densities aiming approximately 100 colonies/dish. Percentage radioprotection was calculated by following formula % of Protection in radiation treated cells=(SFDMA+radiaion)−(SFRadiaion)/SFControl×100 Where SF is survival fraction in respective conditions. Dose modification factor (DMF) was calculated as ratio of 50% survival in DMA+radiation to 50% survival in radiation only.

MRC5 cells = experiment: Clonogenic survival, DMF; format: cell-based, human; settings: MRC5, 50 μM DMA 2 h before radiation
Description: as §2

HEK293 cells [3] = experiment: Clonogenic survival, DMF; format: cell-based, human; settings: HEK293, 50 μM DMA 2 h before radiation
Description: as §2

A549 cells = experiment: Clonogenic survival, DMF; format: cell-based, human; settings: A549, 50 μM DMA 2 h before radiation
Description: as §2

[4] = test system: melanoma bearing Balb/c mice; experiment: Melanoma tumor bearing mice, tumor volume and survival after TBI; format: in vivo, mouse
Description: as §1

COc1ccc(-c2nc3cc(-c4nc5cc(N6CCN(C)CC6)ccc5[nH]4)ccc3[nH]2)cc1OC [DMA, 5-(4-methylpiperazin-1-yl)-2-[2′-(3,4-dimethoxyphenyl)-5′-benzimidazolyl]benzimidazole]
Active S-phase cells in intestine (Balb/c intestinal cells; 50 mg/kg i.v. pretreatment, 8Gy TBI): 11%
Cell proliferation in intestine tissue (Balb/c intestinal cells; DMA treated vs control): same
Phosphorylated Akt level ([1]; DMA pretreated to irradiation of TBM vs other conditions): lower
Akt/NFκB signaling in response to radiation ([1]; tumor tissues of TBM, 50 mg/kg i.v. + 8Gy TBI): does not modulate
Apoptotic events (HEK293 cells [2]; 3 h): 23%
Apoptotic events (HEK293 cells [2]; 6 h): 21%
Apoptotic events (HEK293 cells [2]; 24 h): 22%
Total early and late apoptotic cells (HEK293 cells [2]; 3 h): 12%
Total early and late apoptotic cells (HEK293 cells [2]; 6 h): 9%
Total early and late apoptotic cells (HEK293 cells [2]; 24 h): 7%
DMF at 50% survival (U87 cells): 1.067 and 1.07
DMF at 50% survival (MRC5 cells): 1.1
DMF at 50% survival (HEK293 cells [3]): 1.44
DMF at 50% survival (A549 cells): 1.38
Survival of melanoma bearing Balb/c mice ([4]; 50 mg/kg i.v. 2 h before 8Gy TBI): 50%
Radioprotection of tumor tissues ([4]; 50 mg/kg, 2 h before irradiation, melanoma model): less radioprotection
